The target in one assay is T1, vanilloid receptor (VR1) (Homo sapiens, UniProt Q8NER1).
T1 construct: expressed in transfected cells; host or cells: CHO K1 cells (ECACC), stably transfected
Put plainly: FLIPR Ca2+ influx assay on CHO K1 cells transfected with the VR1 gene (pharmacological method II). The assay is classed as cell-based. The note with it: table 4; capsaicin; read-out: Ki (human) Cap.

For assay [1], the system named is formaldehyde induced nociceptive behaviour. Put plainly: Formaldehyde test in mice, second (late) phase. To be noted: mouse, read-out: inhibition formaldehyde test (n = 10). Type of assay: in vivo, mouse.

T1 sequence (Q8NER1 whole entry): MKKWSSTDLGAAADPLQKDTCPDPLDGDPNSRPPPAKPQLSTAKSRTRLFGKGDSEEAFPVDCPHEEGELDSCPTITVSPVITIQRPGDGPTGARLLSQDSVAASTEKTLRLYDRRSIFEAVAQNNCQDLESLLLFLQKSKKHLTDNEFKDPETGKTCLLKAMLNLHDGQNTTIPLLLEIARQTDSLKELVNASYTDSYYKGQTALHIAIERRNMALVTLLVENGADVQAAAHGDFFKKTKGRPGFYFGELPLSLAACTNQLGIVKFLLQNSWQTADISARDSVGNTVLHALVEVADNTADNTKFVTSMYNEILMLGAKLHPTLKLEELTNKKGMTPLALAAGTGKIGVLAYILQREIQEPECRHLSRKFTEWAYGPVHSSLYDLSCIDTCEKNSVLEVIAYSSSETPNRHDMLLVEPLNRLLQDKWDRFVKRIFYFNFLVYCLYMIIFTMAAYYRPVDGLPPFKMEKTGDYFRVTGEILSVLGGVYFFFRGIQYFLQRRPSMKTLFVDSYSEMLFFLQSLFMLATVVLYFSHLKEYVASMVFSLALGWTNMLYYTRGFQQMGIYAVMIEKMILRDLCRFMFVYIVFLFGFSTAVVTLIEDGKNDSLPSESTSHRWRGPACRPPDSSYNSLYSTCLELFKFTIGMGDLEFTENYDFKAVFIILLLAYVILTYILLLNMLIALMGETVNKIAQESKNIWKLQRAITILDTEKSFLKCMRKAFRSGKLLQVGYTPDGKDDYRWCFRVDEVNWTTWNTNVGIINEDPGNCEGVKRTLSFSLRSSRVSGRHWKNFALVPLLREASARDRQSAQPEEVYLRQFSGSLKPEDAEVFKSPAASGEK

By Ki is commonly meant the dissociation constant of the complex between target and ligand, obtained from inhibition or displacement. On to `CC(C(=O)NCc1ccc(C(F)(F)F)nc1OCCC(C)(C)C)c1ccc(NS(C)(=O)=O)c(F)c1` (centres unmarked) [Example 125], for which the inhibition constant (Ki) on vanilloid receptor (VR1) amounted to 0.9 nM. The inhibition in vivo at 0.3 mg/kg in assay [1] (0.3 mg/kg body weight po) was found to be 24%.
As for `Cc1ccc(Cl)cc1Nc1nc(C(F)(F)F)ccc1CNC(=O)C(C)c1ccc(NS(C)(=O)=O)c(F)c1` (centres unmarked) [Example 136, N-[2-(5-chloro-2-methyl-phenylamino)-6-trifluoromethyl-pyridin-3-ylmethyl]-2-(3-fluoro-4-methylsulfonamido-phenyl)-propionamide], on vanilloid receptor (VR1), the Ki was found to be 14 nM.
Take `CC(C(=O)NCc1ccc(C(C)(C)C)nc1OC1CCCC1)c1ccc(NS(C)(=O)=O)c(F)c1` (centres unmarked) [Example 234, N-(6-tert-butyl-2-cyclopentyloxy-pyridin-3-ylmethyl)-2-(3-fluoro-4-methylsulfonamido-phenyl)-propionamide]: the Ki on vanilloid receptor (VR1) was 1.5 nM. Also, the inhibition in vivo at 0.03 mg/kg in assay [1] (0.03 mg/kg body weight po) worked out at 5%.

Source of the values: patent US8710233B2 (Gruenenthal GmbH, priority 2005, dated 2014).
